pIC50: −log10 of the molar value.
Tests used:
U251 xenograft = assay: Mouse xenograft model U251; format: in vivo; conditions: Brain, CDKN2A/p53/PTEN; oral twice daily dosing
Experimental: (§1) The efficacy of the compound of the formula 1 was confirmed in mouse tumor xenograft models, employing the NMRI(nu/nu) strain of mice. For example, cells from the human tumor cell lines MDA-MB-231, U373, and HT29 were pre-incubated subcutaneously in several nude mice to select for the most robustly growing cell population. After having grown to a sufficient size after 2-3 weeks, a piece of about 2 mm^3 volume of the most suitable tumor was transplanted subcutaneously into the region of the thoracic mammary fat pads, an area ensuring a high degree of vascularization of the grafted tissue. […] During the course of the treatment, the weight of the animals and the size of the transplanted tumor was monitored three times a week. […] These doses are best determined separately for each individual mouse strain employed.
(§2) To establish a solid tumour 3×10^6 tumor cells suspended in 100 μl of serum free medium (RPMI) were inoculated subcutaneously into the region of the thoracic mammary fat pads of 5 Male NMRI(nu/nu) mice of 8-10 weeks of age. […] During the course of the treatment body weight changes and tumor growth were recorded three times a week. Growth curves were plotted together with standard deviations and the significance of differences was determined using an unpaired t-test in FIG. 11. […]

[1] = tested on: HT29 colon cancer cell line; assay: Long-term growth inhibition, crystal violet staining; format: cell-based, human; conditions: 10 nM
Experimental: For proliferation assays tumor cell suspensions (100 μl/well) were seeded into 96-well flat bottomed microtitration plates at a density of ca. 15 cells/microscopic field (magnification 320×). After 2-3 days the culture medium was removed by suction and replaced by fresh medium (200 μl/well) containing varying concentrations of the compound of the formula 1 or vehicle (0.5% DMSO). Compound 1 was added as […] concentrated feed solutions. On every plate 16 wells served as controls and 16 wells were used per concentration of 1. After various times of incubation the cells were fixed with glutardialdehyde and stored in a refrigerator. At the end of the assay all plates were processed simultaneously (staining with 0.02% aqueous crystal violet solution (100 μl/well). Excess dye was removed by rinsing the trays with water for 20 min. The stain bound by the cells was redissolved in 70% ethanol (180 μl/well) while shaking the microplates for about 3 hours. Absorbance (proportional to cell mass) was measured at 578 nm using a BIOTEK 309 Autoreader. The results (mean values±standard deviation) were plotted as growth curves.
The HT29 human colon cancer cell line (obtained from ATCC, Rockville, USA) was cultured as above. Treatment with the compound of the formula 1 and analysis of growth inhibition was performed analogous to Example 3.

PC-3 xenograft = assay: Mouse xenograft model PC-3; format: in vivo; conditions: Prostate, p53/PTEN; oral twice daily dosing
Experimental: as §1, §2

[2] = Pharmacokinetics in mouse plasma and brain after oral dosing; format: in vivo
Experimental: Standard curves were established for the compound 1 reextracted from serum samples and brain homogenates, using the related compound 2 as internal standard. 200 μl serum samples prepared from mouse or human blood, and homogenates of 0.2 g mouse brain tissue in 0.3 ml saturated NaCl solution, were spiked with a range of concentrations of compound 1 at 10 nM, 30 nM, 100 nM, 300 nM, 1 μM, 3 μM in a mix with 500 nM of compound 2 as internal standard in DMSO (final DMSO not exceeding 2%). Serum and homogenate samples were mixed with 100 μl conc. Ammonia, and 200 μl sat'd NaCl solution was added to the serum samples. […] were reextracted twice with 2 ml ethylacetate each by vigorous vortexing for 1 min. Combined organic extracts were evaporated in a SpeedVac, and residues were taken up in 300 μl of 40% water/60% methanol (0.1% formic acid). Samples were analyzed by reversed phase HPLC on a […] Zorbox 300SB-C8 2.1×150 mm column at 45° C. […]
Mice were dosed at 12.5 mg/kg in a vehicle of 50 mM (−)-lactic acid in 50% PEG400, and sacrificed by cardiac puncture after various time intervals. […] Reextraction was performed, and ratios of analyte 1 and internal standard 2 were determined as described above. The concentrations of compound 1 in the serum and brain samples was calculated from the standard curve.

ACHN xenograft = assay: Mouse xenograft model ACHN; format: in vivo; conditions: Kidney, CDKN2A; oral twice daily dosing
Experimental: as §1, §2

GSK3 = assay: Kinase inhibition under standard conditions, GSK3; format: biochemical
OVCAR-3 xenograft = assay: Mouse xenograft model OVCAR-3; format: in vivo; conditions: Ovarian, p53; oral twice daily dosing
Experimental: as §1, §2

## CNC(=O)[C@@]1(N)C[C@H]2O[C@]1(C)n1c3ccccc3c3c4c(c5c6ccccc6n2c5c31)C(=O)NC4 [Compound 1]
U251 xenograft
  Mean % Inhibition: 74%
  N tumors with no/neg. growth: 3 of 11
[1]
  proliferation of HT29 cells: sufficient to block the proliferation
PC-3 xenograft
  Mean % Inhibition: 68%
  N tumors with no/neg. growth: 2 of 11
[2]; in vivo, practical forms of oral dosing
  maximal free plasma concentration sustained over prolonged periods: about 200 nM
[2]; mouse plasma and brain, oral dosing
  penetration of the CNS: good penetration of the CNS
ACHN xenograft
  Mean % Inhibition: 86%
  N tumors with no/neg. growth: 5 of 10
GSK3
  pIC50: 5.91
OVCAR-3 xenograft
  Mean % Inhibition: 78%
  N tumors with no/neg. growth: 4 of 11
